The text below walks through data of ChEMBL document CHEMBL1201862, “PubChem BioAssay data set” (2004).

Calls of active or inactive are those of the source.

Data set [1] can be described thus: NIH3T3 cell viability loss – ATP luminescence, mouse fibroblasts, counter-screen, dose response (AID 2010).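 Also: cells exposed to compound for about 90 hours before reading.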 In kind it is functional, cell-based. A general note: A counterscreen serves to expose hits that act by an unwanted route or on another target.
Data set [2] can be described thus: Trypanosoma cruzi growth suppression in host cells – NIH3T3 host cells, beta-gal luminescence, confirmation (AID 2044).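 Also: intracellular parasites grown in NIH/3T3 mouse fibroblasts as host cells; luminescent beta-galactosidase reporter signal from transgenic T. cruzi replicating inside host cells; inhibitors lower the luminescence signal.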 In kind it is functional, cell-based.
A further data set addresses Cytochrome P450 2C19 (Homo sapiens, UniProt P33261). In words: Cytochrome panel assay with activity outcomes. Panel member name: p450-cyp2c19 Compounds with AC50 equal or less than 10 uM are considered active. It counts as functional.
Another data set deals with T1, Streptokinase A (Streptococcus pyogenes serotype M1, UniProt P10520).
T1 sequence (P10520 whole entry): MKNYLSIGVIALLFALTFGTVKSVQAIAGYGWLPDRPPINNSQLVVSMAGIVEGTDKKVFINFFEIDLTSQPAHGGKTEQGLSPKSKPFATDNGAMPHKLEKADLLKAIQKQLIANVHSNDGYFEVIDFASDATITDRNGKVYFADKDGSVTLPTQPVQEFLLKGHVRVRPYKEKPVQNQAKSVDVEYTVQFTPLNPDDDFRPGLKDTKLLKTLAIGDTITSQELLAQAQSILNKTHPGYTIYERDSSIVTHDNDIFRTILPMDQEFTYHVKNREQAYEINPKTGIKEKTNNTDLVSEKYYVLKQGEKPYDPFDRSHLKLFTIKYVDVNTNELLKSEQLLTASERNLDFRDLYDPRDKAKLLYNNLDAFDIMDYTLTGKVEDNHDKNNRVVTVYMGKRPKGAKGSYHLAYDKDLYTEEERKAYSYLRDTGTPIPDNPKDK
In words: viability-normalized secreted streptokinase activity reduction – plasminogen activation absorbance, OD405, dose response (AID 1914).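 Also: secreted streptokinase activity via plasminogen activation per viability signal from cell pellet.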 It counts as functional, Streptococcus pyogenes M1 GAS.

The test system of data set [3] is Streptococcus sp. 'group A'. In words: Streptococcus pyogenes SK(-)GAS viability under kanamycin – luminescence, BacTiterGlo, confirmation, counter-screen for streptokinase expression inhibitor project, dose response (AID 1900). In kind it is functional, organism-based.
In a further data set the test system is Streptococcus. In words: GAS UMAA2166 growth inhibition – luminescence, BacTiterGlo, counter-screen for streptokinase expression inhibitor project, dose response (AID 1915).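 Also: potency for reduction of bacterial viability or growth.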 It counts as functional, organism-based.

Cytochrome P450 2C19, sequence (P33261 whole entry): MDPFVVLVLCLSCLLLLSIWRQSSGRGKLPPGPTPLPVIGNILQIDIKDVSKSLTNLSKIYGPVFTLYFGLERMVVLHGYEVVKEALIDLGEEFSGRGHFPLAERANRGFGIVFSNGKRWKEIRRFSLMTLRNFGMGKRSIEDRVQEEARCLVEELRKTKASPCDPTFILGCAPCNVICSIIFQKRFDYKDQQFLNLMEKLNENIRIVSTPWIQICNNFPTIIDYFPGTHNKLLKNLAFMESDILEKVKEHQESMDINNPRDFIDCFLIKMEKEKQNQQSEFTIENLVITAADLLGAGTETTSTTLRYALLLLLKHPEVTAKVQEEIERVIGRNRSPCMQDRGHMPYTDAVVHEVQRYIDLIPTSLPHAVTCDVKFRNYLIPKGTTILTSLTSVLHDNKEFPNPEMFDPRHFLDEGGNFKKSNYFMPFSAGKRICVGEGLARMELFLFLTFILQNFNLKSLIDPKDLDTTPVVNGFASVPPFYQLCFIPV

The term EC50 denotes the concentration that produces a half-maximal response. `COc1cc(-c2nc(-c3ccc4c(c3)-c3ccccc3S4(=O)=O)c(-c3ccccc3)[nH]2)cc(OC)c1OC`: the EC50 in data set [1] was > 60 µM (not active); in data set [2], 1.81 µM (active).
In general, AC50 refers to the concentration giving half of the maximal activity seen. Regarding `COc1cc(COc2cc(N)c(Cl)cc2C(=O)CCC2CCN(CCNS(C)(=O)=O)CC2)cc(OC)c1`, the AC50 at Cytochrome P450 2C19 (read-out: AC50) is 15.8 µM (inconclusive).
The same measure, in the same setting: as for `CC(C)=CCC/C(C)=C/CO/N=C1/C[C@@H](O)[C@@H](O)[C@@H]2[C@@H]3C(=O)N(Cc4ccccc4)C(=O)[C@H]3CC[C@H]12`, the figure is 0.0631 µM (inconclusive).
Regarding `Cc1cccc(NC(=O)NCc2ccc3c(c2)OCO3)c1`, the EC50 (at Streptokinase A; in data set [3]; with Streptococcus) was > 150 µM (not active) throughout.
Turning to `Brc1ccc(Nc2ncnc3[nH]ncc23)cc1`, the EC50 at Streptokinase A was > 150 µM (not active); in data set [3] it was 5.77 µM (active); in the data set with Streptococcus, 143 µM (active).
`COc1ccc(C2CC(c3ccc(Br)cc3)=NN2C(=O)CSC2=NN3CCCC(=O)N=C3S2)cc1` (stereo not given): the values for the EC50 in data set [1] and in data set [2] were > 60 µM (not active) and 4.07 µM (active), respectively.
The matching figures for `COc1cc(-c2nc3ccccn3c2NCc2ccccc2)ccc1SC1CCCCC1`: > 60 µM (not active) and 0.954 µM (active).
The matching figures for `O=[N+]([O-])c1nn(-c2ccccc2)[n+]([O-])c1N1CCN(c2ccccc2F)CC1`: > 60 µM (not active) and 0.458 µM (active).
Consider `CCOC(=O)N1CCN(C(=O)c2cc3n(n2)C(C(F)(F)F)CC(c2ccc4c(c2)OCO4)N3)CC1` (stereo not given), for which the EC50 at Streptokinase A was > 150 µM (not active); in data set [3], 62.1 µM (active); with Streptococcus, > 150 µM (not active).
Regarding `O=C(CSc1nnc(NC(=O)c2ccccc2[N+](=O)[O-])s1)NC1CCCC1`, the EC50 (at Streptokinase A; in data set [3]; with Streptococcus) was > 150 µM (not active) throughout.
In the case of `Cc1ccc(NC(=O)C2CC2C)cc1S(=O)(=O)N1CCOCC1` (stereo not given), the EC50 in data set [1] is > 30 µM (not active); in data set [2] it was 1.91 µM (active).
Consider `CCc1ccc(CNc2ccc3c(c2)ncn3C(C)(C)C)cc1`, for which the EC50 is > 150 µM (not active) on Streptokinase A, 10.7 µM (active) in data set [3] and > 150 µM (not active) with Streptococcus.
For the compound `CCSC1=NC2(CCCCC2)Nc2sc3c(c21)CCCC3`, the EC50 in data set [1] is 20.6 µM (active); in data set [2], 2.23 µM (active).
The matching figures for `O=C(Nc1ccc(N2CCCCC2)c(Cl)c1)c1ccc(N2CCOCC2)c([N+](=O)[O-])c1`: > 60 µM (not active) and 1.06 µM (active).
`COC(=O)c1ccc(Oc2nc3ccccc3n3c(C)nnc23)cc1`: the EC50 on Streptokinase A is > 150 µM (not active); in data set [3] it was 3.82 µM (active); with Streptococcus it was 61.2 µM (active).
As to `CC(=O)Nc1ccc(C2C(=O)c3ccccc3C2=O)cc1`, the EC50 at Streptokinase A was > 150 µM (not active); in data set [3], 31.3 µM (active); in the data set with Streptococcus, > 150 µM (not active).
Take `O=C(NC1CCN(Cc2ccccc2)CC1)c1ccc2c(c1)nc(O)n2Cc1ccc(F)cc1`: the EC50 in data set [1] is > 60 µM (inconclusive); in data set [2], 0.485 µM (active).
`COc1ccc(C(=O)c2ccc(N3CCN(C4CC(=O)NC4=O)CC3)cc2)cc1F` (stereo not given): the EC50 at Streptokinase A was > 150 µM (not active); in data set [3], 2.99 µM (active); in the data set on Streptococcus, 33.3 µM (active).
Taken in the same sequence, the figures for `COc1ccc(N(CC(=O)NCCSCc2cccc(Cl)c2)S(C)(=O)=O)cc1Cl` were 23.2 µM (active), 13 µM (active) and 79.6 µM (active).
Take `COc1ccc(CC(=O)NCC2CCCN(Cc3cc(OC)cc(OC)c3)C2)cc1` (stereo not given): the EC50 in data set [1] is > 30 µM (not active); in data set [2] it was 0.197 µM (active).
Consider `Cc1cc(C(F)F)n2nc(C(=O)Nc3cccnc3Cl)nc2n1`, for which, at Cytochrome P450 2C19, the AC50 entry is “inconclusive”.
Regarding `COc1ccc(C(CCN)c2ccc3c(c2)OCO3)cc1` (stereo not given), the EC50 in data set [1] was > 60 µM (not active); in data set [2], 7.31 µM (active).
Taken in the same sequence, the figures for `CCCOc1ccc(-c2nn(-c3ccccc3)cc2/C=C2\SC(N)=NC2=O)cc1C` were > 60 µM (not active) and 1.04 µM (active).
Consider `COC(=O)[C@@]1(Cc2ccc(OC)cc2)[C@H]2c3cc(C(=O)N4CCCC4)n(Cc4ccc(OC)c(OC)c4)c3C[C@H]2CN1C(=O)c1ccccc1`, for which the AC50 on Cytochrome P450 2C19 (read-out: AC50) is 15.8 µM (inconclusive).
Turning to `CO/C(O)=C1\C(C)=NC2=C(C(=O)c3ccccc32)C1c1ccc(-c2ccc(C(=O)O)cc2)o1` (stereo not given), the EC50 at Streptokinase A was > 150 µM (not active); in data set [3], 3.77 µM (active); with Streptococcus, 69 µM (active).
For `CCOC(=O)c1c(NC(=O)CN2CCCCC2)sc2c1CCN(C(=O)OCC)C2`, the EC50 in data set [1] was > 60 µM (not active); in data set [2], 1.13 µM (active).
In the case of `Cc1ccc(C(=O)NCc2ccc(N3CCN(C(=O)OC(C)(C)C)CC3)cc2)cc1`, the AC50 at Cytochrome P450 2C19 (read-out: AC50) is 14.1 µM (inconclusive).
On to `S=C(Nc1ccccc1Cl)N(Cc1ccccc1)Cc1cccnc1`, for which the figures for the EC50 in data set [1] and in data set [2] were > 60 µM (not active) and 0.992 µM (active), respectively.
With `Cc1[nH]c2ccccc2c1C(=O)COC(=O)c1ccc2c(=O)n3c(nc2c1)CCC3`, the results for the EC50 (in data set [3]; in the data set with Streptococcus) were 1.74 µM (active) and 1.99 µM (active), respectively.
On to `COc1cc(C(=O)Nc2nc(-c3ccc(C)cc3)cs2)ccc1OCC(=O)N1CCOCC1`, for which the EC50 was > 60 µM (inconclusive) in data set [1] and 2.04 µM (active) in data set [2].
Take `O=S(=O)(Cc1nnnn1-c1ccccc1)c1ccc(F)cc1`: the EC50 (on Streptokinase A; in data set [3]; in the data set on Streptococcus) was > 150 µM (not active) in each case.
Turning to `CC(C)C[C@H](NC(=O)c1[nH]cnc1C(=O)Nc1ccccc1)C(=O)OC(C)(C)C`, the EC50 was 3.21 µM (active) in data set [3] and 7.19 µM (active) with Streptococcus.
With `Cc1cc(C)cc(C(=O)N2CCC(CCC(=O)NC3CC3)CC2)c1`, the EC50 (on Streptokinase A; in data set [3]; with Streptococcus) was > 150 µM (not active) throughout.
For the compound `COCC1CCCCN1C(=O)c1ccc2oc(CCCc3ccccc3)nc2c1` (stereo not given), the results for the EC50 (at Streptokinase A; in data set [3]; in the data set on Streptococcus) were > 150 µM (not active), 98.8 µM (active) and > 150 µM (not active), respectively.
Take `Cc1nc(N2CCN(c3ccccc3O)CC2)c2c(-c3ccccc3)csc2n1`: the EC50 was 34.4 µM (active) at Streptokinase A, 15.1 µM (active) in data set [3] and > 150 µM (not active) with Streptococcus.
The matching figures for `COc1ccccc1CCNC(=O)C(=O)c1cn(CC(=O)N2CCCC2)c2ccccc12`: > 150 µM (not active), > 150 µM (not active) and > 150 µM (not active).
The matching figures for `O=C(NC(=S)NNC(=O)c1cccs1)c1ccco1`: > 150 µM (not active), 7.02 µM (active) and 36.2 µM (active).
